Patent publication US20060083794A1, “Use of an extract from the plant argania spinosa” (priority 2002, published 2006)

Test system: 5-α-reductase
Assay: Metabolization of 14C testosterone to DHT in reconstructed epidermis (thin-layer chromatography, phosphoimager)
Format: cell-based, human
Settings: Finasterid 10 μM; control = 100
Description: • Epidermis SkinEthic (17 days, 0.63 cm^2) in culture, 37° C., 5% CO2 • Reference substance: Finasteride • Testosterone: [4-14-C]
The epidermis was precultivated for 24 hours on plates with 24 positions. The experiments with the products and the reference substance Finasterid (10 μm) were carried out three times (3 epidermises per experiment). After treatment for 24 hours, the media of the subepidermis were renewed and replaced by 300 μl of fresh culture medium. 100 μl of radioactively marked testosterone solution were applied to the upper surface (horny layer) of the epidermis (TO). After another 24 hours, the subepidermis medium was removed for analysis.
The steroids present in the culture medium were extracted for analysis of the metabolism and separated into their molecular derivatives by thin-layer chromatography (on silica gel). The quantity of transformed testosterone was determined by radioactive counting of the various spots using a phosphoimager.

CC(C)(C)NC(=O)[C@H]1CC[C@H]2[C@@H]3CC[C@H]4NC(=O)C=C[C@]4(C)[C@H]3CC[C@]12C [Finasterid, Finasteride]
DHT formed in %: 8%
